Key:
MAPK phosphorylation = test: MAPK cell-based phosphorylation assay (ELISA or Western), PANC-1; conditions: Homo sapiens
Procedure: Cell lines: Tumor-derived pancreatic cancer cell line PANC-1 was purchased from ATCC and were and grown in DMEM-High Glucose supplemented with penicillin (100 U/mL), streptomycin (100 μg/mL), and 10% heat-inactivated FBS at 37° C. in a humidified incubator with 5% CO2.
Method: Cells were plated at 7500 cells/well density in a 96-well plate, allowed 3 hours to adhere to the plate, then starved in DMEM plus 0.5% FBS overnight. The small molecules to be tested were added to the cells in the final concentration of 10 μM in the presence of 0.3% DMSO for 6 hours incubation at 37° C. For IC50 value determination, serial dilutions of compounds were added to cells under the same conditions. Next, cells were stimulated with 1.5 ng/mL EGF for 15 minutes followed by cell fixation with 4% formaldehyde in PBS at room temperature for 20 minutes. Cell-direct ELISA determined phosphorylation level of MAPK.
Cell-direct ELISA: For each well, cells were permeabilized with 0.1% PBS-Triton X-100, quenched with 0.06% H2O2 in 0.1% PBS-Triton X-100, and probed with anti-phospho-MAPK antibodies (R&D Systems) followed by HRP-conjugated secondary antibody (Jackson Immunoresearch, West Grove, PA). Next, a 50 μM solution of the fluorescent substrate AmpliFlu Red (Sigma) was added and incubated at RT for 20 minutes. At the end of the incubation time, phosphorylation level of MAPK was determined by measuring fluorescence at 595 nm using SpectraMax M3 plate reader (Molecular Devices).
Cell lines: Human NSCLC cells NCI-H1975 and NCI-H1299, and tumor-derived pancreatic cancer cell lines Panc-1, MIA-PaCa-2, and BxPC3, were all purchased from American Type Culture Collection and grown in complete RPMI medium (BxPC3, NCI-H1975 and NCI-H1299) or DMEM-High Glucose (Panc1 and MIA-PaCa-2), supplemented with penicillin (100 U/mL), streptomycin (100 μg/mL), and 10% heat-inactivated FBS at 37° C. in a humidified incubator with 5% CO2.
(§1) Method: Cells were plated at 350000 cells/well density in a 12-well plate, allowed 3 hours to adhere to the plate, then starved in the appropriate medium in the presence of 0.5% FBS overnight. The small molecules to be tested were added to the cells in the final concentration of 10 μM in the presence of 0.3% DMSO for 6 hours incubation at 37° C. For IC50 value determination, serial dilutions of compounds were added to cells under the same conditions. Next, cells were stimulated with 1.5 ng/ml EGF for 15 minutes then cells were lysed with lysis buffer containing 1% Triton X-100, EDTA, and Halt™ Protease & Phosphatase Inhibitor Cocktail (Thermo Scientific). Protein concentration was assessed by BCA protein assay (Thermo Scientific). Phosphorylation level of MAPK was determined by western blot.
(§2) Western blot protocol: Equal amounts of protein (15-50 μg) were separated by SDS-PAGE and transferred to nitrocellulose membranes (Invitrogen by Thermo Fisher Scientific). The membrane was stained with Ponceau S Stain (Boston BioProducts) to verify uniform protein loading. Membranes were blocked with 10% milk and phosphorylation levels of MAPK were assessed by incubating overnight at 4° C. with anti-phospho-p44/42 (Thr202/Tyr204) antibody (Cell Signaling) followed by HRP-conjugated secondary antibody (Jackson Immunoresearch, West Grove, PA). Bands were incubated in Amersham ECL Prime Western Blotting Detection Reagent (GE Healthcare) and visualized using the ChemiDoc MP imaging system (Bio-Rad).

AKT phosphorylation = test: Western AKT cell-based phosphorylation assay, PANC-1; conditions: Homo sapiens
Procedure: Human tumor-derived pancreatic cancer cell line Panc-1 was purchased from American Type Culture Collection and grown in complete DMEM-High Glucose supplemented with penicillin (100 U/mL), streptomycin (100 μg/mL), and 10% heat-inactivated FBS at 37° C. in a humidified incubator with 5% CO2.
as §1, with “C.” for “C. For IC50 value determination, serial dilutions of compounds were added to cells under the same conditions.”, “Akt” for “MAPK”
as §2, with “Akt” for “MAPK”, “anti-phospho-Akt (Ser473)” for “anti-phospho-p44/42 (Thr202/Tyr204)”

[1] = 6 hours, EGF stimulation, PANC-1

COc1cccc(-c2sc3nc(C4=NC(C)=NC4C)nc(N[C@@H]4CC[C@H](OC)C4)c3c2C)c1F (stereo partly drawn)
inhibition at 10 µM (MAPK phosphorylation; PANC-1 (Table 4C)): 76 to 100% | inhibition at 10 µM (AKT phosphorylation; PANC-1 (Table 4C)): 0%

CO[C@H]1CC[C@@H](Nc2nc(-c3nccn3C)nc3sc(-c4cccc5[nH]ncc45)c(C)c23)C1
inhibition at 10 µM (MAPK phosphorylation; PANC-1 (Table 4C)): 76 to 100% | inhibition at 10 µM (AKT phosphorylation; PANC-1 (Table 4C)): 0%

Cn1ccc(-c2sc3nc(-c4nccn4C)nc(N[C@@H]4CC[C@H](O)C4)c3c2-c2ccccc2)n1 (racemic) [drawing 509]
inhibition at 10 µM (MAPK phosphorylation; PANC-1 (Table 4C)): 26 to 50% | inhibition at 10 µM (AKT phosphorylation; PANC-1 (Table 4C)): 0%

COc1cccc(-c2csc3c(O)nc(-c4nccn4C)nc23)c1Cl [drawing 386]
inhibition at 10 µM (MAPK phosphorylation; [1]): 26 to 50% | inhibition at 10 µM (AKT phosphorylation; [1]): 0%

Cn1ccnc1-c1nc(O)c2scc(-c3ccccn3)c2n1 [drawing 387]
inhibition at 10 µM (MAPK phosphorylation; [1]): 0% | inhibition at 10 µM (AKT phosphorylation; [1]): 0%

Oc1nc(-c2ncc3n2CCCC3)nc2c(-c3ccccn3)csc12 [drawing 388]
inhibition at 10 µM (MAPK phosphorylation; [1]): 0% | inhibition at 10 µM (AKT phosphorylation; [1]): 0%

Oc1nc(-c2cn3ccccc3n2)nc2c(-c3ccccn3)csc12 [drawing 389]
inhibition at 10 µM (MAPK phosphorylation; [1]): 26 to 50% | inhibition at 10 µM (AKT phosphorylation; [1]): 0%

COCCn1ccnc1-c1nc(O)c2scc(-c3ccccn3)c2n1 [drawing 390]
inhibition at 10 µM (MAPK phosphorylation; [1]): 51 to 75% | inhibition at 10 µM (AKT phosphorylation; [1]): 0%

Cc1cc(Cn2ccnc2-c2nc(O)c3scc(-c4ccccn4)c3n2)on1 [drawing 391]
inhibition at 10 µM (MAPK phosphorylation; [1]): 0% | inhibition at 10 µM (AKT phosphorylation; [1]): 0%

Oc1nc(-c2nccn2Cc2ccccn2)nc2c(-c3ccccn3)csc12 [drawing 392]
inhibition at 10 µM (MAPK phosphorylation; [1]): 51 to 75% | inhibition at 10 µM (AKT phosphorylation; [1]): 0%

COc1cccc(Cn2ccnc2-c2nc(O)c3scc(-c4ccccn4)c3n2)c1 [drawing 393]
inhibition at 10 µM (MAPK phosphorylation; [1]): 51 to 75% | inhibition at 10 µM (AKT phosphorylation; [1]): 0%

Cc1cnc(-c2nc(O)c3scc(-c4ccccn4)c3n2)n1C [drawing 394]
inhibition at 10 µM (MAPK phosphorylation; [1]): 0% | inhibition at 10 µM (AKT phosphorylation; [1]): 0%

Cc1cn(C)c(-c2nc(O)c3scc(-c4ccccn4)c3n2)n1 [drawing 395]
inhibition at 10 µM (MAPK phosphorylation; [1]): 0% | inhibition at 10 µM (AKT phosphorylation; [1]): 0%

Oc1nc(-c2ncc3ccccn23)nc2c(-c3ccccn3)csc12 [drawing 396]
inhibition at 10 µM (MAPK phosphorylation; [1]): 0% | inhibition at 10 µM (AKT phosphorylation; [1]): 0%

Oc1nc(-c2cn3cccnc3n2)nc2c(-c3ccccn3)csc12 [drawing 397]
inhibition at 10 µM (MAPK phosphorylation; [1]): 0% | inhibition at 10 µM (AKT phosphorylation; [1]): 0%

Oc1nc(-c2cn(-c3ccccc3)cn2)nc2c(-c3ccccn3)csc12 [drawing 398]
inhibition at 10 µM (MAPK phosphorylation; [1]): 0% | inhibition at 10 µM (AKT phosphorylation; [1]): 0%

COc1ccc(Cn2cnc(-c3nc(O)c4scc(-c5ccccn5)c4n3)c2)cc1 [drawing 399]
inhibition at 10 µM (MAPK phosphorylation; [1]): 51 to 75% | inhibition at 10 µM (AKT phosphorylation; [1]): 0%

COCCCNc1nc(-c2nccn2C)nc2sc(-c3ccn(C)n3)c(-c3ccccc3)c12 [drawing 400]
inhibition at 10 µM (MAPK phosphorylation; [1]): 26 to 50% | inhibition at 10 µM (AKT phosphorylation; [1]): 0%

COCCCN(C)c1nc(-c2nccn2C)nc2sc(-c3ccn(C)n3)c(-c3ccccc3)c12 [drawing 401]
inhibition at 10 µM (MAPK phosphorylation; [1]): 51 to 75% | inhibition at 10 µM (AKT phosphorylation; [1]): 0%

COCC(C)Nc1nc(-c2nccn2C)nc2sc(-c3ccn(C)n3)c(-c3ccccc3)c12 (stereo not drawn) [drawing 402]
inhibition at 10 µM (MAPK phosphorylation; [1]): 51 to 75% | inhibition at 10 µM (AKT phosphorylation; [1]): 0%

COC1CCN(c2nc(-c3nccn3C)nc3sc(-c4ccn(C)n4)c(-c4ccccc4)c23)C1 (stereo not drawn) [drawing 403]
inhibition at 10 µM (MAPK phosphorylation; [1]): 1 to 25% | inhibition at 10 µM (AKT phosphorylation; [1]): 0%

Cn1ccc(-c2sc3nc(-c4nccn4C)nc(NC4CCOCC4)c3c2-c2ccccc2)n1 [drawing 404]
inhibition at 10 µM (MAPK phosphorylation; [1]): 1 to 25% | inhibition at 10 µM (AKT phosphorylation; [1]): 1 to 25%

Cn1ccc(-c2sc3nc(-c4nccn4C)nc(NCC4CCOC4)c3c2-c2ccccc2)n1 (stereo not drawn) [drawing 405]
inhibition at 10 µM (MAPK phosphorylation; [1]): 1 to 25% | inhibition at 10 µM (AKT phosphorylation; [1]): 0%

Cn1ccc(-c2sc3nc(-c4nccn4C)nc(N4CCC5(CCOC5)C4)c3c2-c2ccccc2)n1 (stereo not drawn) [drawing 409]
inhibition at 10 µM (MAPK phosphorylation; [1]): 0% | inhibition at 10 µM (AKT phosphorylation; [1]): 0%

COC1CCN(c2nc(-c3nccn3C)nc3sc(-c4ccn(C)n4)c(-c4ccccc4)c23)CC1 [drawing 410]
inhibition at 10 µM (MAPK phosphorylation; [1]): 76 to 100% | inhibition at 10 µM (AKT phosphorylation; [1]): 0%

COCCCNc1nc(-c2nccn2C)nc2sc(-c3ccn(C)n3)c(-c3ccc(OC)cc3)c12 [drawing 411]
inhibition at 10 µM (MAPK phosphorylation; [1]): 0% | inhibition at 10 µM (AKT phosphorylation; [1]): 0%

COCC(C)Nc1nc(-c2nccn2C)nc2sc(-c3ccn(C)n3)c(-c3ccc(OC)cc3)c12 (stereo not drawn) [drawing 412]
inhibition at 10 µM (MAPK phosphorylation; [1]): 1 to 25% | inhibition at 10 µM (AKT phosphorylation; [1]): 0%

COc1ccc(-c2c(-c3ccn(C)n3)sc3nc(-c4nccn4C)nc(N4CCC(OC)C4)c23)cc1 (stereo not drawn) [drawing 413]
inhibition at 10 µM (MAPK phosphorylation; [1]): 1 to 25% | inhibition at 10 µM (AKT phosphorylation; [1]): 0%

COC1CCN(c2nc(-c3nccn3C)nc3sc(-c4ccccc4Cl)c(-c4cscn4)c23)C1 (stereo not drawn) [drawing 415]
inhibition at 10 µM (MAPK phosphorylation; [1]): 0% | inhibition at 10 µM (AKT phosphorylation; [1]): 0%

COc1cccc(-c2sc3nc(-c4nccn4C)nc(N4CCC(OC)C4)c3c2-c2cscn2)c1 (stereo not drawn) [drawing 417]
inhibition at 10 µM (MAPK phosphorylation; [1]): 0% | inhibition at 10 µM (AKT phosphorylation; [1]): 0%

COCCNc1nc(-c2cn(C)cn2)nc2sc(-c3cccc(OC)c3Cl)c(-c3ccc(OC)cc3)c12 [drawing 423]
inhibition at 10 µM (MAPK phosphorylation; [1]): 76 to 100% | inhibition at 10 µM (AKT phosphorylation; [1]): 0%

COCCNc1nc(-c2cn(C)cn2)nc2sc(-c3cc(OC)ccc3Cl)c(-c3ccc(OC)cc3)c12 [drawing 424]
inhibition at 10 µM (MAPK phosphorylation; [1]): 76 to 100% | inhibition at 10 µM (AKT phosphorylation; [1]): 76 to 100%

COc1cc(-c2sc3nc(-c4nccn4C)nc(N4CCC(OC)C4)c3c2-c2ccccc2)ccn1 (stereo not drawn) [drawing 427]
inhibition at 10 µM (MAPK phosphorylation; [1]): 51 to 75% | inhibition at 10 µM (AKT phosphorylation; [1]): 0%

COC1CCN(c2nc(-c3nccn3C)nc3sc(-c4ccnn4C)c(-c4ccccc4)c23)C1 (stereo not drawn) [drawing 428]
inhibition at 10 µM (MAPK phosphorylation; [1]): 0% | inhibition at 10 µM (AKT phosphorylation; [1]): 0%

COC1CCN(c2nc(-c3nccn3C)nc3sc(-c4cccnc4)c(-c4ccccc4)c23)C1 (stereo not drawn) [drawing 429]
inhibition at 10 µM (MAPK phosphorylation; [1]): 51 to 75% | inhibition at 10 µM (AKT phosphorylation; [1]): 0%

COc1ccc(-c2sc3nc(-c4nccn4C)nc(N4CCC(OC)C4)c3c2-c2ccccc2)cn1 (stereo not drawn) [drawing 430]
inhibition at 10 µM (MAPK phosphorylation; [1]): 1 to 25% | inhibition at 10 µM (AKT phosphorylation; [1]): 0%

COc1ncccc1-c1sc2nc(-c3nccn3C)nc(N3CCC(OC)C3)c2c1-c1ccccc1 (stereo not drawn) [drawing 431]
inhibition at 10 µM (MAPK phosphorylation; [1]): 76 to 100% | inhibition at 10 µM (AKT phosphorylation; [1]): 0%

COC1CCN(c2nc(-c3nccn3C)nc3sc(-c4cnc(C5CC5)o4)c(-c4ccccc4)c23)C1 (stereo not drawn) [drawing 432]
inhibition at 10 µM (MAPK phosphorylation; [1]): 51 to 75% | inhibition at 10 µM (AKT phosphorylation; [1]): 0%

COc1cccc(-c2sc3nc(-c4nccn4C)nc(N4CCC(OC)C4)c3c2-c2ccccc2)c1F (stereo not drawn) [drawing 473]
IC50 (MAPK phosphorylation; PANC-1): > 1 µM

CO[C@H]1CC[C@@H](Nc2nc(-c3nccn3C)nc3sc(-c4ccn(C(C)C)n4)c(-c4ccccc4)c23)C1 [drawing 475]
IC50 (MAPK phosphorylation; PANC-1): > 1 µM
